{"source": "patent US20250049933A1", "about": "“DRUG DELIVERY SYSTEM FOR TARGETED CANCER TREATMENT” (priority 2024, published 2025)", "origin": "cited, not measured here", "key": {"[1]": {"settings": "in vivo"}, "[2]": {"system": "pancreatic cancer"}}, "data": [{"smiles": "Nc1ccn([C@@H]2O[C@H](CO)[C@@H](O)C2(F)F)c(=O)n1", "note": "[GEM, gemcitabine]", "values": [{"measurement": "oral bioavailability", "setting": "[1]", "value": 9, "unit": "%"}, {"measurement": "overall survival", "setting": "[2]", "value": 6.7, "unit": "months"}]}]}
